This note sets out measurements from patent publication US9840532B2, “5′-substituted nucleoside compounds” (Eli Lilly and Company, priority 2015, dated 2017).

One may read the ED50 as the dose that gives a 50% effect, or the effect in half of the subjects. What is called IC50 is the point on the concentration scale where inhibition reaches its midpoint. The low end stands for greater potency in that assay, the high end for weaker potency in that assay.

Some results are limits rather than exact numbers.

In experiment [1] the test system is PRMT5-mediated retention of exon 6 in the processed MDM4 mRNA in A375 tumor cells. Briefly: Mouse A375 Xenograft Tumor MDM4 Exon5/6 RNA Splicing Assay. It is filed as in vivo. As to conditions: A-375, PO given QD or BID, tumors 4 hr after last dose, 4 days of dosing, read-out: dose achieving 50% effect (ED50). The method, then:
The purpose of this assay is to measure the ability of a test compound to inhibit PRMT5-mediated retention of exon 6 in the processed MDM4 mRNA in A375 tumor cells in a mouse tumor xenograft model. This assay represents the effect of a test compound on specific PRMT5-mediated splicing events in tumors in an animal model.
Grow A375 cells in medium (DMEM high glucose/10% Hi FBS) at 37° C. in an incubator (5% CO2) for 18-24 hr. Mix the cells with MATRIGEL® (1:1) and implant the cells (5×10^6/animal) subcutaneously into the rear flank of the mice (female nude mice, Harlan). The implanted tumor cells grow as solid tumors. Measure the tumor volume and body weight twice a week with a caliper. After tumor volume reaches approximately 200-250 mm^3 (about 20 days after implant), randomize the animals, and group them into compound treatment groups. Administer the test compounds (formulated in SWFI with 1% HEC/0.25% TWEEN® 80/0.05% Antifoam) by oral gavage. Test compound doses are in the range of 3 to 100 mg/kg. Sacrifice mice 4 hr after the last dose (4 days of dosing).
Harvest tumor tissues and homogenize as described below. Place tumor samples in a bowl and add 1 mL of liquid N2. Squash the tumor in the bowl. Transfer small pieces of tumor (about 20 mg each) into 2 lysing matrix D tubes (MPBIO cat. #6913-250). Use one tube for RNA processing and the other for protein lysate preparation. For RNA processing, homogenize the tumor tissues in an RNEASY® Mini Kit (QIAGEN-74104) extraction buffer (0.5 mL each) for 30 seconds using a Bio101 FastPrep FP120 homogenizer (setting 6). Total RNA is purified with QUARTZY® RNEASY® Mini Kit −50 (QIAGEN-74104, RNEASY® Mini Handbook, Fourth Edition, June 2012). Check the RNA concentration to ensure OD 260/280 […]≧1.9. For cDNA synthesis use A&B APPLIED BIOSYSTEMS®, High Capacity cDNA Reverse Transcription Kit (cat. #4368813). Use 1 μg total RNA (10 μL) in each RT reaction volume of 20 μL, containing 10×RT Buffer—2.0 μL; 25×dNTP Mix (100 mM)—0.8 μL; 10×RT Random Primers—2.0 μL; MULTISCRIBE™ Reverse Transcriptase—1.0 μL; Nuclease-free H2O—[…]. […]

A further experiment deals with A375 cells. The experiment in a line: Protocol Proliferation 7-day (CELL TITER-GLO). It is filed as cell-based. The following applies: Homo sapiens, A-375, 168 h, 7 days, Mean ± SEM. Here is the method: The purpose of this assay is to measure the ability of test compounds to inhibit proliferation of cancer cells.
On day 1, plate A375 cells (ATCC, DMEM high glucose/10% Hi FBS) at 250 cells/well (100 μL/well) in a 96-well assay plate (BD Falcon 35-3219). Incubate the plates in a 37° C. incubator (5% CO2) for 18-24 hr. On day 2, prepare and serially dilute test compounds in medium (1:2 10-point serial dilution) from compound stock solutions (10 mM in 100% DMSO). Add 10 μL of serial diluted test compounds to cell plates (0.2% DMSO final concentration). Add 10 μL of reference compound (Example 1) to column 1 of cell plates (20 μM final, 0.2% DMSO). Incubate cell plates at 37° C./5% CO2 for 7 days. On day nine, thaw the CELL TITER-GLO® (Promega #G7571) buffer and equilibrate to room temperature prior to use. Also, equilibrate the lyophilized CELL TITER-GLO® substrate to room temperature prior to use. Transfer CELL TITER-GLO® buffer to an amber substrate bottle to reconstitute the lyophilized enzyme/substrate mixture to form the CELL TITER-GLO® reagent. Equilibrate the cell plate(s) to room temperature for […] Gently remove media in cell plates by flicking and blotting on a stack of paper towels. Add CELL TITER-GLO® reagent (25 μL) to each well. Incubate plates for […] at room temperature before reading. Measure luminescence using PERKIN-ELMER® ENVISION® Multi-label Plate Reader. Analyze this luminescence data by a 4-parameter curve fit using Activity Base, to yield cell proliferation IC50 values.
On the technique in general: ATP-based viability assays read luminescence as a measure of living cells.

`Nc1ncnc2c1ccn2[C@@H]1O[C@H]([C@H](O)c2ccc(Cl)cc2)[C@@H](O)[C@H]1O` [Example 1, (2R,3R,4S,5R)-2-(4-Aminopyrrolo[2,3-d]pyrimidin-7-yl)-5-[(R)-(4-chlorophenyl)-hydroxy-methyl]tetrahydrofuran-3,4-diol]: the ED50 in experiment [1] is at most 30 mg/kg. The same molecule registered an IC50 with A375 cells of 10.8 nM.
As to `Nc1ncnc2c1ccn2[C@@H]1O[C@H]([C@H](O)c2ccccc2)[C@@H](O)[C@H]1O` [Example 2, (2R,3R,4S,5R)-2-(4-Aminopyrrolo[2,3-d]pyrimidin-7-yl)-5[(R)-hydroxy(phenyl)methyl]tetrahydrofuran-3,4-diol], the ED50 in experiment [1] is at most 30 mg/kg. This molecule also registered an IC50 in the experiment on A375 cells of 31.5 nM.
Turning to `C[C@@](O)(c1ccc(Cl)cc1)[C@H]1O[C@@H](n2ccc3c(N)ncnc32)[C@H](O)[C@@H]1O` [Example 3, (2R,3R,4S,5S)-2-(4-Aminopyrrolo[2,3-d]pyrimidin-7-yl)-5-[(1R)-1-(4-chlorophenyl)-1-hydroxy-ethyl]tetrahydrofuran-3,4-diol], the ED50 in experiment [1] is at most 30 mg/kg. The molecule also yielded an IC50 in the experiment on A375 cells of 44 nM.
